Results taken from paper PMC7031696 (Cell chemical biology, 2019).
Like-named read-outs stand apart in the source and are kept apart here.

What was measured:
[1] = system: Plasmodium falciparum 3D7-A10 parasites; test: Stage specificity assay (8-h exposure of synchronized stages, IC50^8h); format: cell-based; settings: for IC50: Plasmodium falciparum
[2] = system: asynchronous 3D7-A10 parasite cultures; test: Standard 72-h exposure asexual blood stage susceptibility assay (IC50^72h); format: cell-based, Plasmodium falciparum; settings: Plasmodium falciparum, 3D7, 72 h, read-out: Overall (72hr assay) Mean IC50 (IC50^72h)
[3] = system: 3D7-MR4 trophozoite parasite-infected RBCs; test: Metabolomic profiling (hydrophilic metabolite changes, UHPLC-MS); format: cell-based, Plasmodium falciparum

Ratio lowest IC50 8hr/IC50 72hr ([1]; 3D7-A10): 2.0 | IC50^8h relative to IC50^72h value ([1]; most susceptible stages): 2 fold | IC50 [2]: 30.8 nM
Compound: FC(F)(F)c1ccc(Nc2cc3[nH]c(-c4cccc(C(F)(F)F)c4)nc3cn2)nc1 [MMV675939]
IC50 ([1]; 3D7, read-out: Early rings Mean IC50 (IC50^8h), 8-h exposure 0–8 hr, 3D7-A10, survival at 60 h): 1170 nM | IC50 ([1]; 3D7, read-out: Early trophozoites Mean IC50 (IC50^8h), 8-h exposure 16–24 hr, 3D7-A10, survival at 60 h): 62.9 nM | IC50 ([1]; 3D7, read-out: Late rings Mean IC50 (IC50^8h), 8-h exposure 8–16 hr, 3D7-A10, survival at 60 h): 268 nM | IC50 ([1]; 3D7, read-out: Late trophozoites Mean IC50 (IC50^8h), 8-h exposure 24–32 hr, 3D7-A10, survival at 60 h): 146 nM | IC50 ([1]; 3D7, read-out: Schizonts Mean IC50 (IC50^8h), 8-h exposure 32–40 hr, 3D7-A10, survival at 60 h): 1650 nM | Stage of peak activity (Figure 6) ([1]; period when the parasite was most susceptible (lowest IC50^8h)): early and late trophozoites | Peak Activity (Table S1) ([1]; stage(s) with the lowest IC50^8h): Trophs | changes within the set of metabolites detected (low fold change group) ([3]; 10 × IC50^72h, 2.5 hr, trophozoites): did not induce major changes | Log2(fold changes) 3-phosphoglycerate ([3]; metabolite 3-phosphoglycerate, log2 fold change): -0.0740 | Log2(fold changes) 4-Pyridoxic acid ([3]; metabolite 4-Pyridoxic acid, log2 fold change): 0.0934 | Log2(fold changes) 4-aminobutyrate ([3]; metabolite 4-aminobutyrate, log2 fold change): -0.0838 | Log2(fold changes) 4-phosphopantetheine ([3]; metabolite 4-phosphopantetheine, log2 fold change): 0.0000 | Log2(fold changes) 4-phosphopantothenate ([3]; metabolite 4-phosphopantothenate, log2 fold change): -0.1644 | Log2(fold changes) 5-aminopentanoic acid ([3]; metabolite 5-aminopentanoic acid, log2 fold change): 0.0000 | Log2(fold changes) 5-methyl-THF ([3]; metabolite 5-methyl-THF, log2 fold change): 0.0000 | Log2(fold changes) 5-phosphoribosyl-1-pyrophosphate ([3]; metabolite 5-phosphoribosyl-1-pyrophosphate, log2 fold change): 0.0000 | Log2(fold changes) 6-phospho-D-gluconate ([3]; metabolite 6-phospho-D-gluconate, log2 fold change): -0.0601 | Log2(fold change) HVDD ([3]; metabolite HVDD): 0.0907 | Log2(fold change) Hydroxyisocaproic acid ([3]; metabolite Hydroxyisocaproic acid): 0.0000 | Log2(fold change) IDP ([3]; metabolite IDP): 0.0000 | Log2(fold change) IMP ([3]; metabolite IMP): -0.0368 | Log2(fold change) Inositol ([3]; metabolite Inositol): 0.0000 | Log2(fold change) Isopentyl-PP ([3]; metabolite Isopentyl-PP): -0.3198 | Log2(fold change) L-arginino-succinate ([3]; metabolite L-arginino-succinate): 0.0258 | Log2(fold change) LD ([3]; metabolite LD): 0.2379 | Log2(fold change) Myristoyl/tetradecanoyl-CoA ([3]; metabolite Myristoyl/tetradecanoyl-CoA): 0.0000 | Log2(fold change) N-Acetyl-L-alanine ([3]; metabolite N-Acetyl-L-alanine): 0.0194 | Log2(fold change) N-acetyl-L-ornithine ([3]; metabolite N-acetyl-L-ornithine): -0.1313 | Log2(fold change) N-acetyl-glucosamine-1/6-phosphate ([3]; metabolite N-acetyl-glucosamine-1/6-phosphate): -0.1343 | Log2(fold change) N-acetyl-glutamate ([3]; metabolite N-acetyl-glutamate): -0.1472 | Log2(fold change) N-acetyl-glutamine ([3]; metabolite N-acetyl-glutamine): 0.0192 | Log2(fold change) N-carbamoyl-L-aspartate ([3]; metabolite N-carbamoyl-L-aspartate): -0.1451 | Log2(fold change) NAD+ ([3]; metabolite NAD+): -0.0175 | Log2(fold change) NADH ([3]; metabolite NADH): -0.2763 | Log2(fold change) NADP+ ([3]; metabolite NADP+): 0.0809 | Log2(fold change) NADPH ([3]; metabolite NADPH): -0.4301 | Log2(fold change) O-acetyl-L-serine ([3]; metabolite O-acetyl-L-serine): -0.0735 | Log2(fold change) Octoluse 8/1P ([3]; metabolite Octoluse 8/1P): -0.1460 | Log2(fold change) Octoluse Bisphosphate ([3]; metabolite Octoluse Bisphosphate): -0.0903 | Log2(fold change) PD ([3]; metabolite PD): -0.0797 | Log2(fold change) PE ([3]; metabolite PE): -0.0211 | Log2(fold change) PEE ([3]; metabolite PEE): 0.0917 | Log2(fold change) PEEK ([3]; metabolite PEEK): 0.1721 | Log2(fold change) PVNF ([3]; metabolite PVNF): 0.1648 | Log2(fold change) Pyroglutamic acid ([3]; metabolite Pyroglutamic acid): -0.1915 | Log2(fold change) Pyrophosphate ([3]; metabolite Pyrophosphate): 0.0000 | Log2(fold change) Ribose-5-phosphate ([3]; metabolite Ribose-5-phosphate): -0.1384 | Log2(fold change) S-adenosyl-L-homocysteine ([3]; metabolite S-adenosyl-L-homocysteine): 0.0407 | Log2(fold change) S-adenosyl-L-methioninamine ([3]; metabolite S-adenosyl-L-methioninamine): -0.3534 | Log2(fold change) S-adenosyl-L-methionine ([3]; metabolite S-adenosyl-L-methionine): 0.0000 | Log2(fold change) S-methyl-5'-thioadenosine ([3]; metabolite S-methyl-5'-thioadenosine): 0.0820 | Log2(fold change) SD ([3]; metabolite SD): -0.1003 | Log2(fold change) SDL ([3]; metabolite SDL): 0.0000 | Log2(fold change) SID ([3]; metabolite SID): 0.1202 | Log2(fold change) Sedoheptulose bisphosphate ([3]; metabolite Sedoheptulose bisphosphate): -0.2322 | Log2(fold change) Thiamine pyrophosphate ([3]; metabolite Thiamine pyrophosphate): 0.0281 | Log2(fold changes) UDP-D-glucose ([3]; metabolite UDP-D-glucose, log2 fold change): -0.0394 | Log2(fold changes) UDP-D-glucuronate ([3]; metabolite UDP-D-glucuronate, log2 fold change): -0.0296 | Log2(fold changes) UDP-N-acetyl-glucosamine ([3]; metabolite UDP-N-acetyl-glucosamine, log2 fold change): -0.1021 | Log2(fold changes) UDP ([3]; metabolite UDP, log2 fold change): -0.2552 | Log2(fold changes) UMP ([3]; metabolite UMP, log2 fold change): -0.1084 | Log2(fold changes) UTP ([3]; metabolite UTP, log2 fold change): 0.0000 | Log2(fold change) hydroxyphenylpyruvate ([3]; metabolite hydroxyphenylpyruvate): 0.0000 | Log2(fold change) hydroxyproline/Aminolevulinate ([3]; metabolite hydroxyproline/Aminolevulinate): -0.1121 | Log2(fold change) hypoxanthine ([3]; metabolite hypoxanthine): -0.1075 | Log2(fold change) indole ([3]; metabolite indole): 0.0000 | Log2(fold change) inosine ([3]; metabolite inosine): 0.0076 | Log2(fold change) isoleucine ([3]; metabolite isoleucine): 0.0000 | Log2(fold change) lactate ([3]; metabolite lactate): -0.1204 | Log2(fold change) leucine ([3]; metabolite leucine): 0.0000 | Log2(fold change) lysine ([3]; metabolite lysine): -0.3554 | Log2(fold change) malate ([3]; metabolite malate): -0.1053 | Log2(fold change) maleic acid ([3]; metabolite maleic acid): -0.1158 | Log2(fold change) methionine ([3]; metabolite methionine): -0.0422 | Log2(fold change) myo-inositol ([3]; metabolite myo-inositol): -0.1497 | Log2(fold change) nicotinamide mononucleotide ([3]; metabolite nicotinamide mononucleotide): 0.0424 | Log2(fold change) nicotinate ([3]; metabolite nicotinate): -0.2143 | Log2(fold change) ornithine ([3]; metabolite ornithine): 0.2780 | Log2(fold change) orotate ([3]; metabolite orotate): -0.3359 | Log2(fold change) orotidine-5'-phosphate ([3]; metabolite orotidine-5'-phosphate): -0.1978 | Log2(fold change) oxaloacetate ([3]; metabolite oxaloacetate): -0.2404 | Log2(fold change) p-aminobenzoate ([3]; metabolite p-aminobenzoate): 0.0000 | Log2(fold change) p-hydroxybenzoate ([3]; metabolite p-hydroxybenzoate): 0.0000 | Log2(fold change) pantothenate ([3]; metabolite pantothenate): -0.0579 | Log2(fold change) phenylalanine ([3]; metabolite phenylalanine): -0.1115 | Log2(fold change) phenylpyruvate ([3]; metabolite phenylpyruvate): 0.0000 | Log2(fold change) phosphoenolpyruvate ([3]; metabolite phosphoenolpyruvate): 0.0011 | Log2(fold change) prephenate ([3]; metabolite prephenate): -0.0728 | Log2(fold change) proline ([3]; metabolite proline): -0.1132 | Log2(fold change) pyridoxine ([3]; metabolite pyridoxine): 0.1122 | Log2(fold change) pyruvate ([3]; metabolite pyruvate): -0.1845 | Log2(fold change) riboflavin ([3]; metabolite riboflavin): 0.2197 | Log2(fold change) ribose ([3]; metabolite ribose): -0.0488 | Log2(fold change) ribose-phosphate ([3]; metabolite ribose-phosphate): -0.3090 | Log2(fold change) ribulose-5-phosphate ([3]; metabolite ribulose-5-phosphate): -0.1779 | Log2(fold change) serine ([3]; metabolite serine): -0.0132 | Log2(fold change) sn-glycerol-3-phosphate ([3]; metabolite sn-glycerol-3-phosphate): -0.0322 | Log2(fold change) succinate/Methylmalonic acid ([3]; metabolite succinate/Methylmalonic acid): 0.0214 | Log2(fold change) succinyl-CoA/methylmalonyl-CoA ([3]; metabolite succinyl-CoA/methylmalonyl-CoA): 0.0000 | Log2(fold change) taurine ([3]; metabolite taurine): -0.5626 | Log2(fold change) thiamine ([3]; metabolite thiamine): -0.2223 | Log2(fold change) threonine/homoserine ([3]; metabolite threonine/homoserine): -0.0861 | Log2(fold change) thymidine ([3]; metabolite thymidine): 0.0000 | Log2(fold changes) thymine ([3]; metabolite thymine, log2 fold change): 0.0000 | Log2(fold changes) trehalose-6-Phosphate ([3]; metabolite trehalose-6-Phosphate, log2 fold change): 0.0000 | Log2(fold changes) tryptophan ([3]; metabolite tryptophan, log2 fold change): -0.3649 | Log2(fold changes) tyrosine ([3]; metabolite tyrosine, log2 fold change): -0.0724 | Log2(fold changes) uridine ([3]; metabolite uridine, log2 fold change): 0.0000
